In this assay the test system is CD8F1 mice, subcutaneous mammary adenocarcinoma, T/C%. Description: NCI In Vivo Anticancer Drug Screen. Data for tumor model Mammary Adenocarcinoma CD8F1 (subcutaneous) in CD8F1. The conditions noted are these: higher = larger tumour. A digest of the protocol:
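Antitumor activity is assessed in transplantable-tumor mice by comparing the treated group with a vehicle-treated control group. Survival or tumor size serves as the measure, reported as T divided by C.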

[1] abbreviates: endpoint: median tumor weight change, dose: 62.0 mg/kg/injection, schedule: Q01DX001 (ip), vehicle: saline with Tween-80.
Setting [2] is: endpoint: median tumor weight change, dose: 125.0 mg/kg/injection, schedule: Q01DX001 (ip), vehicle: saline with Tween-80.
Setting [3] is: endpoint: median tumor weight (est.), dose: 25.0 mg/kg/injection, schedule: Q07DX005 (ip), vehicle: saline with Tween-80.
Where [4] appears, read: endpoint: median tumor weight (est.), dose: 200.0 mg/kg/injection, schedule: Q07DX005 (ip), vehicle: saline with Tween-80.
Where [5] appears, read: endpoint: median tumor weight change, dose: 250.0 mg/kg/injection, schedule: Q01DX001 (ip), vehicle: saline with Tween-80.
The mark [6] stands for this setting: endpoint: median tumor weight change, dose: 500.0 mg/kg/injection, schedule: Q01DX001 (ip), vehicle: saline with Tween-80.
Where [7] appears, read: endpoint: median tumor weight change, dose: 125.0 mg/kg/injection, schedule: Q01DX001 (ip), vehicle: Klucel (hydroxypropylcellulose) (HPC).

SMILES strings stand for the structures. “And” between values parts separate entries of the source, which are not always exact repeats. Identical values can stand only once. Records with an inconclusive call do not appear.

For the molecule `O=NN(CCCl)C(=O)NC1CCCCC1`, the T/C by setting is: (endpoint: mean tumor weight (est.), dose: 25.0 mg/kg/injection, schedule: Q07DX003 (ip), vehicle: saline + alcohol) 88 % of control; (endpoint: mean tumor weight (est.), dose: 50.0 mg/kg/injection, schedule: Q07DX003 (ip), vehicle: saline + alcohol) 28 % of control; (endpoint: mean tumor weight, dose: 6.25 mg/kg/injection, schedule: Q01DX009 (ip), vehicle: saline) 78 % of control; (endpoint: mean tumor weight, dose: 12.5 mg/kg/injection, schedule: Q01DX009 (ip), vehicle: saline) 75 % of control; (endpoint: mean tumor weight, dose: 12.5 mg/kg/injection, schedule: Q07DX006 (ip), vehicle: saline + alcohol) 74 % of control; (endpoint: mean tumor weight, dose: 25.0 mg/kg/injection, schedule: Q01DX009 (ip), vehicle: saline) 28 % of control. In addition, the T/C by setting is: (endpoint: mean tumor weight, dose: 25.0 mg/kg/injection, schedule: Q07DX006 (ip), vehicle: saline + alcohol) 44 % of control; (endpoint: mean tumor weight, dose: 25.0 mg/kg/injection, schedule: Q07DX006 (ip), vehicle: saline) 61 % of control; (endpoint: mean tumor weight, dose: 50.0 mg/kg/injection, schedule: Q07DX006 (ip), vehicle: saline + alcohol) 11 % of control; (endpoint: mean tumor weight, dose: 50.0 mg/kg/injection, schedule: Q07DX006 (ip), vehicle: saline) 220 % of control; (endpoint: median tumor weight (est.), dose: 8.0 mg/kg/injection, schedule: Q07DX005 (ip), vehicle: Klucel (hydroxypropylcellulose) (HPC)) 99 % of control; (endpoint: median tumor weight (est.), dose: 16.0 mg/kg/injection, schedule: Q07DX005 (ip), vehicle: Klucel (hydroxypropylcellulose) (HPC)) 30 % of control. In addition, the T/C (endpoint: median tumor weight (est.), dose: 32.0 mg/kg/injection, schedule: Q07DX005 (ip), vehicle: Klucel (hydroxypropylcellulose) (HPC)) is 29 % of control; the T/C (endpoint: median tumor weight change, dose: 4.0 mg/kg/injection, schedule: Q01DX001 (ip), vehicle: Klucel (hydroxypropylcellulose) (HPC)) is 66 % of control; the T/C (endpoint: median tumor weight change, dose: 8.0 mg/kg/injection, schedule: Q01DX001 (ip), vehicle: Klucel (hydroxypropylcellulose) (HPC)) is 73 % of control; the T/C (endpoint: median tumor weight change, dose: 15.0 mg/kg/injection, schedule: Q01DX001 (ip), vehicle: Klucel (hydroxypropylcellulose) (HPC)) was 91 % of control; the T/C (endpoint: median tumor weight change, dose: 16.0 mg/kg/injection, schedule: Q01DX001 (ip), vehicle: Klucel (hydroxypropylcellulose) (HPC)) was 55 % of control; the T/C (endpoint: median tumor weight change, dose: 30.0 mg/kg/injection, schedule: Q01DX001 (ip), vehicle: Klucel (hydroxypropylcellulose) (HPC)) was 34 % of control. The T/C was 40 % of control (endpoint: median tumor weight change, dose: 32.0 mg/kg/injection, schedule: Q01DX001 (ip), vehicle: Klucel (hydroxypropylcellulose) (HPC)); -23 % of control (endpoint: median tumor weight change, dose: 60.0 mg/kg/injection, schedule: Q01DX001 (ip), vehicle: Klucel (hydroxypropylcellulose) (HPC)); 17 % of control (endpoint: median tumor weight change, dose: 80.0 mg/kg/injection, schedule: Q01DX001 (ip), vehicle: Klucel (hydroxypropylcellulose) (HPC)).
On to `O=CC(O)C(O)C(O)C(O)C(=O)O.[NH-]C1CCCCC1[NH-].[Pt+2]` (stereo not given), for which the T/C runs as follows: (endpoint: median tumor weight (est.), dose: 6.25 mg/kg/injection, schedule: Q07DX005 (ip), vehicle: suspension in saline) 48 % of control; (endpoint: median tumor weight (est.), dose: 12.5 mg/kg/injection, schedule: Q07DX005 (ip), vehicle: suspension in saline) 7 % of control and 32 % of control; (endpoint: median tumor weight (est.), dose: 25.0 mg/kg/injection, schedule: Q07DX005 (ip), vehicle: suspension in saline) 6 % of control.
In the case of `CCN=C=NCCCN(C)C`, the T/C is, setting by setting: (endpoint: median tumor weight change, dose: 3.9 mg/kg/injection, schedule: Q01DX001 (ip), vehicle: saline) 115 % of control; (endpoint: median tumor weight change, dose: 7.81 mg/kg/injection, schedule: Q01DX001 (ip), vehicle: saline) 112 % of control; (endpoint: median tumor weight change, dose: 15.63 mg/kg/injection, schedule: Q01DX001 (ip), vehicle: saline) 92 % of control; (endpoint: median tumor weight change, dose: 31.25 mg/kg/injection, schedule: Q01DX001 (ip), vehicle: saline) 109 % of control; (endpoint: median tumor weight change, dose: 62.5 mg/kg/injection, schedule: Q01DX001 (ip), vehicle: saline) 67 % of control.
For the molecule `CCN(CC)Cc1cc2[nH]c3c4ccc(Cl)cc4ncc3c2cc1OC`, the T/C is, setting by setting: (endpoint: median tumor weight change, dose: 31.0 mg/kg/injection, schedule: Q01DX001 (ip), vehicle: saline with Tween-80) 47 % of control; under setting [1], 109 % of control; under setting [2], 118 % of control.
Take `O=S(=O)(c1ccccc1)N1CN2CCN(C2)C1`: the T/C was 55 % of control and 72 % of control under setting [3]; 66 % of control and 79 % of control under setting [4].
In the case of `O=C1SC(c2ccccc2)=S=C1c1ccccc1`, the T/C was 67 % of control under setting [2]; 100 % of control under setting [5]; 60 % of control under setting [6]; 56 % of control (endpoint: median tumor weight change, dose: 1000.0 mg/kg/injection, schedule: Q01DX001 (ip), vehicle: saline with Tween-80).
In the case of `Cn1ccc(=Nc2ccc(NC(=O)c3ccc(N=c4ccn(C)c5ccc([N+](=O)[O-])cc45)cc3[N+](=O)[O-])cc2)cc1`, the T/C runs as follows: (endpoint: median tumor weight (est.), dose: 100.0 mg/kg/injection, schedule: Q07DX005 (ip), vehicle: saline with Tween-80) 48 % of control; under setting [4], 124 % of control.
For `CCC[P+](c1ccccc1)(c1ccccc1)c1ccccc1`, the T/C by setting is: (endpoint: mean tumor weight, dose: 3.12 mg/kg/injection, schedule: Q07DX006 (ip), vehicle: saline with Tween-80) 211 % of control; (endpoint: mean tumor weight, dose: 6.25 mg/kg/injection, schedule: Q07DX006 (ip), vehicle: saline with Tween-80) 241 % of control; (endpoint: mean tumor weight, dose: 12.5 mg/kg/injection, schedule: Q07DX006 (ip), vehicle: saline with Tween-80) 40 % of control; (endpoint: mean tumor weight, dose: 25.0 mg/kg/injection, schedule: Q07DX006 (ip), vehicle: saline with Tween-80) 72 % of control; (endpoint: mean tumor weight, dose: 50.0 mg/kg/injection, schedule: Q07DX006 (ip), vehicle: saline with Tween-80) 38 % of control; (endpoint: median tumor weight (est.), dose: 3.12 mg/kg/injection, schedule: Q07DX005 (ip), vehicle: saline with Tween-80) 83 % of control. Also, the T/C runs as follows: (endpoint: median tumor weight (est.), dose: 6.25 mg/kg/injection, schedule: Q07DX004 (ip), vehicle: saline with Tween-80) 112 % of control; (endpoint: median tumor weight (est.), dose: 6.25 mg/kg/injection, schedule: Q07DX005 (ip), vehicle: saline with Tween-80) 72 % of control; (endpoint: median tumor weight (est.), dose: 12.5 mg/kg/injection, schedule: Q07DX004 (ip), vehicle: saline with Tween-80) 172 % of control; (endpoint: median tumor weight (est.), dose: 12.5 mg/kg/injection, schedule: Q07DX005 (ip), vehicle: saline with Tween-80) 73 % of control; (endpoint: median tumor weight (est.), dose: 25.0 mg/kg/injection, schedule: Q07DX004 (ip), vehicle: saline with Tween-80) 183 % of control; under setting [3], 34 % of control. Also, the T/C by setting is: (endpoint: median tumor weight (est.), dose: 50.0 mg/kg/injection, schedule: Q07DX004 (ip), vehicle: saline with Tween-80) 104 % of control; (endpoint: median tumor weight (est.), dose: 50.0 mg/kg/injection, schedule: Q07DX005 (ip), vehicle: saline with Tween-80) 30 % of control.
With `COc1ccc(C(N)=O)cc1N=NN(C)C`, the T/C (endpoint: median tumor weight (est.), dose: 6.25 mg/kg/injection, schedule: Q07DX005 (ip), vehicle: Klucel (hydroxypropylcellulose) (HPC)) is 175 % of control.
As to `O=Cc1c(O)c2ccccc2[nH]c1=O`, the T/C reads like this: under setting [1], 112 % of control; (endpoint: median tumor weight change, dose: 62.5 mg/kg/injection, schedule: Q01DX001 (ip), vehicle: saline with Tween-80) 69 % of control; under setting [5], 61 % of control and 67 % of control; under setting [6], 55 % of control.
With `O=Cc1ccc(C=O)c(Cl)c1`, the T/C is, setting by setting: under setting [7], 104 % of control; (endpoint: median tumor weight change, dose: 250.0 mg/kg/injection, schedule: Q01DX001 (ip), vehicle: Klucel (hydroxypropylcellulose) (HPC)) 99 % of control; (endpoint: median tumor weight change, dose: 500.0 mg/kg/injection, schedule: Q01DX001 (ip), vehicle: Klucel (hydroxypropylcellulose) (HPC)) 79 % of control; (endpoint: median tumor weight change, dose: 1000.0 mg/kg/injection, schedule: Q01DX001 (ip), vehicle: Klucel (hydroxypropylcellulose) (HPC)) 117 % of control; (endpoint: median tumor weight change, dose: 2000.0 mg/kg/injection, schedule: Q01DX001 (ip), vehicle: Klucel (hydroxypropylcellulose) (HPC)) 67 % of control.
Turning to `CCCCNCCCNCCCNC(=O)c1csc(-c2csc(CCNC(=O)C(NC(=O)C(C)C(O)C(C)NC(=O)C(NC(=O)c3nc(C(CC(N)=O)NCC(N)C(N)=O)nc(N)c3C)C(OC3OC(CO)C(O)C(O)C3OC3OC(CO)C(O)C(OC(N)=O)C3O)c3cnc[nH]3)C(C)O)n2)n1` (stereo not given), the T/C is, setting by setting: (endpoint: median tumor weight (est.), dose: 4.0 mg/kg/injection, schedule: Q07DX005 (ip), vehicle: saline) 16 % of control; (endpoint: median tumor weight (est.), dose: 8.0 mg/kg/injection, schedule: Q07DX005 (ip), vehicle: saline) 10 % of control; (endpoint: median tumor weight (est.), dose: 16.0 mg/kg/injection, schedule: Q07DX005 (ip), vehicle: saline) 16 % of control.
With `COc1ccc(Cl)[n+]([O-])n1`, the T/C under setting [7] was 79 % of control.
Turning to `CS(=O)(=O)[O-].CS(=O)(=O)[O-].NC1CCCCC1N.[Pt+4]` (stereo not given), the T/C is, setting by setting: (endpoint: median tumor weight (est.), dose: 0.63 mg/kg/injection, schedule: Q07DX005 (ip), vehicle: dextrose) 96 % of control; (endpoint: median tumor weight (est.), dose: 5.0 mg/kg/injection, schedule: Q07DX005 (ip), vehicle: dextrose) 4 % of control and 8 % of control.

(Values after PubChem BioAssay AID220 (DTP/NCI, 2004).)
